Patent publication US11571413B2, “Nicotinamide riboside treatments of domesticated meat animals” (Kansas State University Research Foundation, priority 2017, dated 2023)
“And” between values parts separate entries of the source, which are not always exact repeats. Equal values may be shown once. Marks after values point to notes of the source that are not given here.

How the values were obtained:
Format in all cases: in vivo, chicken
[1] = tested on: fertilized broiler eggs; assay: Immunohistochemical analysis of muscle fiber CSA during in ovo myogenesis (Example 1); settings: 100 μl 250 mM NR in ovo at 11 d
Procedure: At 11-days of incubation, 60 fertilized broiler eggs were randomly assigned to completely randomized design with a 2×2 factorial arrangement. Factor 1 comprised treatment, with eggs injected with 100 μl of 0.9% sterile saline solution (NRNeg) or 250 mM NR in sterile saline (NRPos). Factor 2 comprised injection location, with treatments injected into the yolk or albumen. Eggs were incubated at 37±3° C. and a relative humidity of 40±2% for 7 days. Humidity was increased to 60±2% at the same temperature for the final 3 days of incubation. Twenty-four hours after hatching, chicks were euthanized by exposure to CO2 and decapitation. Measurements including chick weight and left Pectoralis major weight, length, and depth were taken for analysis. Immunohistochemical analysis was conducted to determine if NR supplementation increased muscle fiber cross-sectional area (CSA) during in ovo myogenesis. There were no Treatment×Location or Treatment and Location main effects for muscle fiber CSA (P>0.06). […] This is desired heavily in meat producing animals.

[2] = tested on: Fertilized broiler eggs (Cobb 500); assay: In ovo feeding of NR into yolk or albumen: hatched chick body and pectoralis major morphometrics (Example VI); settings: hatched chicks
Procedure: Fertilized broiler eggs (N=156; Cobb 500; Cobb-Vantress, Siloam Springs, Ark.) with an average weight of 70.3 g were transported in coolers to the Kansas State University Muscle Biology Laboratory (Manhattan, Kans.). Upon arrival, egg weights were recorded, eggs were ordered by weight, and within each 4 egg strata, eggs were randomly assigned to treatments within a 2×2 factorial arrangement. Factor 1 was NR treatment with eggs receiving 0 or 250 mM NR (ChromaDex, Los Angeles, Calif.). Factor 2 was injection location, with treatments injected into either the yolk or albumen. After treatment assignment, eggs were positioned with equal treatment representation onto trays and placed in an incubator (Sportsman 1502; GQF Manufacturing Company Inc., Savannah, Ga.) set to operate at a temperature of 37° C. and a relative humidity of 40±2% for the first 18 d of incubation. The incubator rotated hourly to reposition eggs, and trays were rotated daily throughout the incubator to account for variation in temperature and humidity. Tray weights were recorded each day to determine egg weight loss percentage with a target weight loss of 0.67% per day.
At d 10 of incubation, NR with the equivalent weight of 250 mM was added to 0.9% sterile saline and covered with foil to prevent exposure to light. Sets of 20 eggs representing equal treatment numbers were removed from the incubator, candled to determine location of the yolk and albumen, and the injection site was cleaned with 70% ethanol. Eggs were turned at a 90° angle and a 2.54-cm, 20-guage hypodermic needle was used to create an opening in the shell at the proper injection site. The needle was inserted approximately 1 cm into injection site and 100 μl of the 250 mM NR solution or 0.9% saline solution was injected into the egg. A 1-cm^2 portion of medical tape (Nexcare; 3M, Maplewood, Minn.) was positioned over the injection location and eggs were returned to the incubator.
On d 18 of incubation, the relative humidity of the incubator was increased to 60±2% and eggs were placed into hatching boxes at the bottom of the incubator. As chicks began to hatch, they were removed from the incubator, marked for treatment, and relocated to a box positioned underneath a heat lamp. Approximately 12 to 24 h after hatch, chicks were euthanized by prolonged exposure to CO2 gas and decapitation. Chick weights were recorded, and digital calipers (Traceable Digital Calipers; Fisher Scientific, Pittsburg, Pa.) were utilized to measure crown to rump length, head width, head length. Head and chest circumference were also collected by wrapping a string around the designated area and determining the length against a ruler.
Chick carcasses were sprayed with 70% ethanol and the skin and feathers were pulled back to reveal the pectoralis major (PM) muscles. Prior to PM muscles removal, chest width and length were measured using digital calipers. The left and right PM muscles were removed, careful to not remove the pectoralis minor muscles. The left PM was weighed and dimensions were collected using digital calipers, including length, width, and depth. This muscle was positioned onto a tongue depressor and placed into a −80° C. freezer, where it was stored until it was used for cryosectioning. The heart and liver were also removed, weighed, and discarded.

[3] = tested on: Fertilized Cobb 500 broiler eggs; assay: Pectoralis major succinate dehydrogenase staining intensity (second Example VI); settings: 250, 500 or 1,000 mM NR; hatched chicks
Procedure: The methods of Noel et al. (2016) were followed for succinate dehydrogenase (SDH) staining. Slides were incubated at 37° C. for 1 h in a prewarmed incubation solution containing nitro blue tetrazolium solution, phosphate buffer, and sodium succinate solution. After washing in ultrapure water 3 times for 1 min each, 5 μL of 9:1 glycerol in PBS was placed on each cryosection and they were coverslipped for imaging. All cryosections were imaged at 200× magnification using a Nikon Eclipse TI-U inverted microscope (Nikon Instruments Inc., Melville, N.Y.). Immunohistochemistry photomicrographs were collected with a DS-QiMC digital camera (Nikon Instruments Inc.) and SDH cryosections were collected with a Nikon DS-Fil color digital camera (Nikon Instruments Inc.) White light intensity was kept constant for SDH photomicrographs. All photomicrograph collection and image analyses were conducted using NIS Elements Basic Software (Nikon Instruments Inc.). Cross-sectional area (CSA) of a minimum of 1,000 muscle fibers per chick was determined as the area within the dystrophin border. The number of satellite cell was determined as nuclei co-staining for Pax 7 and Hoechst dye located at the periphery of muscle fiber. A minimum of 50 muscle fiber bundles per chick were analyzed for SDH mean intensity using the same software. […]

[4] = 250 mM NR, 100 μl into albumen d 10
[5] = 250 mM NR, 100 μl into yolk d 10

For NC(=O)c1ccc[n+]([C@@H]2O[C@H](CO)[C@@H](O)[C@H]2O)c1 [Nicotinamide riboside, nicotinamide riboside], the “Muscle fiber cross-sectional area (CSA)” value [1] was “did not increase”, the “Increase of PM weight” value ([2]; 250 mM NR into the yolk sac) was 38% and the “Increase of PM length” value ([2]; 250 mM NR into the yolk sac, listed as NR) was 22% and 21%. It also gave a Body weight [2, 4] of 43.19 g, a Chest length [2, 4] of 21.98 mm and a Chest width [2, 4] of 16.57 mm. The Crown-rump length [2, 4] was 96.14 mm, the Head circumference [2, 4] was 32.14 mm and the Head length [2, 4] was 21.29 mm. It also gave a Head width [2, 4] of 15.56 mm, a Heart weight [2, 4] of 0.35 g and a Liver weight [2, 4] of 1.05 g. The Pectoralis major depth [2, 4] was 2.43 mm, the Pectoralis major length [2, 4] was 18.68^b mm and the Pectoralis major weight [2, 4] was 0.14^a g. For the same molecule, the Pectoralis major width [2, 4] was 4.81 mm, the Body weight [2, 5] was 44.02 g and the Chest length [2, 5] was 22.68 mm. It also gave a Chest width [2, 5] of 17.69 mm, a Crown-rump length [2, 5] of 89.36 mm and a Head circumference [2, 5] of 31.49 mm. It also gave a Head length [2, 5] of 21.73 mm, a Head width [2, 5] of 15.45 mm and a Heart weight [2, 5] of 0.36 g. For the same molecule, the Liver weight [2, 5] was 1.11 g, the Pectoralis major depth [2, 5] was 2.65 mm and the Pectoralis major length [2, 5] was 20.74^c mm. For the same molecule, the Pectoralis major weight [2, 5] was 0.18^b g, the Pectoralis major width [2, 5] was 5.21 mm and the “Increase of PM width” value ([2]; 250 mM NR, regardless of injection location) was 9%. For the same molecule, the “Increase of PM depth” value ([2]; 250 mM NR, regardless of injection location, listed as NR) was 11% and 10% and the SDH staining intensity [3] was “no treatment effect”.
